Test results reported in patent US20110152246A1, “NOVEL INHIBITORS OF HEPATITIS C VIRUS REPLICATION” (InterMune, Inc., priority 2009, published 2011).

Tested on: Huh7 cells containing HCV replicons with an integrated luciferase reporter gene
Assay: HCV Replicon Assay (luciferase reporter)
Assay type: cell-based
Conditions: Hepatitis C virus, Huh-7, 48 h, read-out: EC50 nM
Method: Huh7 cells containing HCV replicons with an integrated luciferase reporter gene are maintained at 37° C. in 5% CO2 in Dulbecco's modified Eagle's medium (DMEM; Mediatech, Herndon, Va.) containing 10% heat-inactivated fetal bovine serum (FBS; Mediatech, Herndon, Va.), 2 mM L-glutamine (Cambrex Bioscience, Walkersville, Md.), 1% non essential amino acids (Lonza, Walkersville, Md.), 50 IU/mL penicillin (Mediatech, Herndon, Va.), […] streptomycin (Mediatech, Herndon, Va.) and 0.5 mg/mL G418 (Promega, Madison, Wis.). Cells are sub-divided 1:3 or 4 every 2-3 days.
24 h prior to the assay, Huh7 cells containing sub-genomic HCV replicons are collected, counted, and plated in Nunclon 96-well tissue culture plates (ThermoFisher, Rochester, N.Y.) at 5000 cells/well in […] standard maintenance medium (above) and incubated in the conditions above. To initiate the assay, culture medium is removed, and replaced with […] maintenance media lacking G418. Test compounds are serially diluted three-fold in dimethyl sulfoxide (DMSO) in two duplicate rows for each EC50 determination. These compound solutions are diluted ten-fold in DMEM lacking serum and G418. […] of these compound solutions in media are added to duplicate tissue culture plates. The final volume is 100 μL with a DMSO concentration of 1%. Compound concentrations are adjusted to appropriately define a dose response curve. Typical dilution series range from […] to 1.69 nM final concentrations to 1 nM to 16.9 fM final. Plates are incubated at 37° C. for approximately 48 hr.
Following incubation, media is removed from one of the two duplicate plates and replicon-reporter luciferase activity is measured using a Bright-Glo luciferase assay kit (Promega, Madison, Wis.) according to manufacturer's instructions. Semi-log plots of luciferase activity versus the logarithm of compound concentration are fit to a 4-parameter logistic function using XLfit software (IDBS Inc., Guildford, UK) to determine EC50.

Which EC50 does the source give for `COC(=O)N[C@H](C(=O)N1CCC[C@H]1C(=O)Nc1ccc(NC(=O)c2ccc(NC(=O)[C@@H]3CCCN3C(=O)Cc3ccccc3)cc2)cc1)C(C)C` [Compound 103] here?
Its EC50 is 10 to 100 nM.

Which EC50 does the source give for `COC(=O)N[C@H](C(=O)N1CCC[C@H]1C(=O)Nc1ccc(C(=O)Nc2ccc(NC(=O)[C@@H]3CCCN3C(=O)Cc3ccccc3)cc2)cc1)C(C)C` [Compound 104] here?
The EC50 was 10 to 100 nM.

For `O=C(Cc1ccccc1)N1CCC[C@H]1c1ncc(-c2ccc(-c3ccc(-c4cnc([C@@H]5CCCN5C(=O)Cc5ccccc5)[nH]4)c4ccccc34)cc2)[nH]1` [Compound 302], which EC50 is on record?
Its EC50 is under 10 nM.

How did the EC50 turn out when `COC(=O)N[C@H](C(=O)N1CCC[C@H]1c1ncc(-c2ccc(-c3ccc(-c4cnc([C@@H]5CCCN5C(=O)Cc5ccccc5)[nH]4)c4ccccc34)cc2)[nH]1)C(C)C` [Compound 307] was run?
The EC50 was under 10 nM.

Same assay, conditions: Hepatitis C virus, Huh-7; Huh7 HCV replicon cells, luciferase activity, approximately 48 hr incubation; read-out: EC50

How did the EC50 turn out when `COC(=O)NCC(=O)N1CCC[C@H]1c1ncc(-c2ccc(-c3ccc(-c4cnc([C@@H]5CCCN5C(=O)CNC(=O)OC)[nH]4)c4ccccc34)cc2)[nH]1` [Compound 325] was run?
The EC50 was under 10 nM.

For `COC(=O)N[C@H](C(=O)N1CCC[C@H]1C(=O)Nc1ccc(-c2ccc3cc(NC(=O)[C@@H]4CCCN4C(=O)[C@@H](NC(=O)OC)C(C)C)ccc3c2)cc1)C(C)C` [Compound 201], which EC50 is on record?
Its EC50 is under 10 nM.

For `COC(=O)N[C@@H](C(=O)N1CCC[C@H]1c1ncc(-c2ccc(-c3ccc(-c4cnc([C@@H]5CCCN5C(=O)[C@H](NC(=O)OC)C(C)C)[nH]4)c4ccccc34)cc2)[nH]1)C(C)C` [Compound 324], which EC50 is on record?
The EC50 was under 10 nM.

Which EC50 does the source give for `COC(=O)N[C@H](C(=O)N1CCC[C@@]1(C)c1nc(-c2ccc(-c3ccc(-c4c[nH]c([C@]5(C)CCCN5C(=O)[C@@H](NC(=O)OC)C(C)C)n4)c4scnc34)cc2)c[nH]1)C(C)C` [Compound 329] here?
The EC50 was under 10 nM.

`O=S(=O)(Cc1ccccc1)N1CCC[C@H]1c1ncc(-c2ccc(-c3ccc(-c4cnc([C@@H]5CCCN5S(=O)(=O)Cc5ccccc5)[nH]4)c4ccccc34)cc2)[nH]1` [Compound 326] was tested. Which EC50 did it give?
Its EC50 is over 100 nM.

For `COC(=O)N[C@H](C(=O)N1CCC[C@H]1c1nc(-c2ccc(-c3ccc(-c4c[nH]c([C@@H]5CCCN5C(=O)[C@@H](NC(=O)OC)C(C)C)n4)c4c3OCO4)cc2)c[nH]1)C(C)C` [Compound 312], which EC50 is on record?
The EC50 was under 10 nM.

With `COC(=O)N[C@H](C(=O)N1CCC[C@H]1c1nc(-c2ccc(-c3ccc(-c4c[nH]c([C@@H]5CCCN5C(=O)[C@@H](NC(=O)OC)C(C)C)n4)c4c3ccn4C)cc2)c[nH]1)C(C)C` [Compound 327] as the molecule, how does the EC50 read?
The EC50 was under 10 nM.

With `COC(=O)N[C@H](C(=O)N1CCC[C@H]1C(=O)Nc1ccc(-c2ccc3nc(NC(=O)[C@@H]4CCCN4C(=O)[C@@H](NC(=O)OC)C(C)C)ccc3c2)cn1)C(C)C` [Compound 217] as the molecule, how does the EC50 read?
Its EC50 is under 10 nM.

With `COC(=O)N[C@H](C(=O)N1CCC[C@H]1C(=O)Nc1ccc2cc(NC(=O)[C@@H]3CCCN3C(=O)Cc3ccccc3)ccc2c1)C(C)C` [Compound 205] as the molecule, how does the EC50 read?
Its EC50 is over 100 nM.

`COC(=O)N[C@H](C(=O)N1CCC[C@H]1c1nc(-c2ccc(-c3ccc(-c4c[nH]c([C@@H]5CCCN5C(=O)[C@@H](NC(=O)OC)C(C)C)n4)c4ncccc34)cc2)c[nH]1)C(C)C` [Compound 315] was tested. Which EC50 did it give?
Its EC50 is under 10 nM.

For `COC(=O)N[C@H](C(=O)N1CCC[C@H]1C(=O)Nc1ccc(-c2ccc3cc(NC(=O)[C@@H]4CCCN4C(=O)Cc4ccccc4)ccc3c2)cn1)C(C)C` [Compound 208], which EC50 is on record?
Its EC50 is under 10 nM.

Which EC50 does the source give for `COC(=O)N[C@H](C(=O)N1CCCC[C@H]1c1nc(-c2ccc3cc(-c4ccc5[nH]c([C@@H]6CCCCN6C(=O)[C@@H](NC(=O)OC)C(C)C)nc5c4)ccc3c2)c[nH]1)C(C)C` [Compound 418] here?
Its EC50 is under 10 nM.

With `COC(=O)N[C@H](C(=O)N1CCC[C@H]1c1nc(-c2ccc(-c3ccc(-c4c[nH]c([C@@H]5CCCN5C(=O)[C@@H](NC(=O)OC)C(C)C)n4)c4oc(C)nc34)cc2)c[nH]1)C(C)C` [Compound 323] as the molecule, how does the EC50 read?
Its EC50 is under 10 nM.

How did the EC50 turn out when `COC(=O)N[C@H](C(=O)N1CCC[C@H]1c1ncc(-c2ccc(-c3ccc(-c4cnc([C@@H]5CCCN5C(=O)[C@@H](NC(=O)OC)C(C)C)[nH]4)c4ccccc34)cc2)[nH]1)C(C)C` [Compound 301] was run?
Its EC50 is under 10 nM.

`COC(=O)N[C@H](C(=O)N1CCC[C@H]1c1nc(-c2ccc(-c3ccc(-c4c[nH]c([C@@H]5CCCN5C(=O)[C@@H](NC(=O)OC)C(C)C)n4)c4sc(C)nc34)cc2)c[nH]1)C(C)C` [Compound 310] was tested. Which EC50 did it give?
Its EC50 is under 10 nM.

With `O=C(Nc1ccc(-c2ccc3cc(NC(=O)[C@@H]4CCCN4C(=O)Cc4ccccc4)ccc3c2)cc1)[C@@H]1CCCN1C(=O)Cc1ccccc1` [Compound 211] as the molecule, how does the EC50 read?
Its EC50 is under 10 nM.

How did the EC50 turn out when `COC(=O)N[C@H](C(=O)N1CCC[C@H]1C(=O)Nc1ccc(-c2nc3ccc(NC(=O)[C@@H]4CCCN4C(=O)[C@@H](NC(=O)OC)C(C)C)cc3s2)cc1)C(C)C` [Compound 403] was run?
Its EC50 is under 10 nM.

`O=C(Nc1ccc2cc(-c3ccc(NC(=O)[C@@H]4CCCN4C(=O)Cc4ccccc4)nc3)ccc2c1)[C@@H]1CCCN1C(=O)Cc1ccccc1` [Compound 206] was tested. Which EC50 did it give?
The EC50 was under 10 nM.

For `COC(=O)N[C@H](C(=O)N1CCC[C@H]1C(=O)Nc1ccc2cc(-c3ccc(NC(=O)[C@@H]4CCCN4C(=O)[C@@H](NC(=O)OC)C(C)C)nc3)ccc2c1)C(C)C` [Compound 207], which EC50 is on record?
Its EC50 is under 10 nM.

For `COC(=O)N[C@H](C(=O)N1CCC[C@H]1c1nc(-c2ccc3cc(-c4ccc5[nH]c([C@@H]6CCCN6C(=O)[C@@H](NC(=O)OC)C(C)C)nc5c4)ccc3c2)c[nH]1)C(C)C` [Compound 402], which EC50 is on record?
The EC50 was under 10 nM.

Which EC50 does the source give for `COC(=O)N[C@H](C(=O)N1CCC[C@H]1C(=O)Nc1ccc2cc(-c3ccc(NC(=O)[C@@H]4CCCN4C(=O)Cc4ccccc4)nc3)ccc2c1)C(C)C` [Compound 209] here?
The EC50 was under 10 nM.

How did the EC50 turn out when `COC(=O)N[C@H](C(=O)N1CCC[C@H]1C(=O)Nc1ncc(-c2ccc3nc(NC(=O)[C@@H]4CCCN4C(=O)Cc4ccccc4)ccc3c2)cn1)C(C)C` [Compound 214] was run?
Its EC50 is 10 to 100 nM.

With `COC(=O)N[C@H](C(=O)N1CCC[C@@]1(C)c1nc(-c2ccc(-c3ccc(-c4c[nH]c([C@]5(C)CCCN5C(=O)[C@@H](NC(=O)OC)C(C)C)n4)c4c3OCO4)cc2)c[nH]1)C(C)C` [Compound 328] as the molecule, how does the EC50 read?
Its EC50 is under 10 nM.

For `COC(=O)N[C@H](C(=O)N1CCC[C@H]1c1nc(-c2ccc(-c3ccc4cc(-c5c[nH]c([C@]6(C)CCCN6C(=O)[C@@H](NC(=O)OC)C(C)C)n5)ccc4c3)cc2)c[nH]1)C(C)C` [Compound 222], which EC50 is on record?
Its EC50 is under 10 nM.

`COC(=O)NC(C(=O)N1CCC[C@H]1c1nc(-c2ccc(-c3ccc(-c4c[nH]c([C@@H]5CCCN5C(=O)[C@@H](NC(=O)OC)C(C)C)n4)c4c3CCCC4)cc2)c[nH]1)C(C)C` (stereo partly drawn) [Compound 304] was tested. Which EC50 did it give?
Its EC50 is under 10 nM.

`COC(=O)N[C@H](C(=O)N1CCC[C@H]1c1nc(-c2ccc(-c3ccc(-c4c[nH]c([C@@H]5CCCN5C(=O)[C@@H](NC(=O)OC)C(C)C)n4)c4[nH]cc(C)c34)cc2)c[nH]1)C(C)C` [Compound 330] was tested. Which EC50 did it give?
Its EC50 is under 10 nM.

Which EC50 does the source give for `COC(=O)N[C@H](C(=O)N1CCC[C@H]1c1nc(-c2ccc(-c3ccc(-c4c[nH]c([C@@H]5CCCN5C(=O)[C@@H](NC(=O)OC)C(C)C)n4)c4c3CCC4)cc2)c[nH]1)C(C)C` [Compound 306] here?
The EC50 was under 10 nM.

With `COC(=O)N[C@H](C(=O)N1CCC[C@H]1C(=O)Nc1ccc2cc(NC(=O)[C@@H]3CCCN3C(=O)[C@@H](NC(=O)OC)C(C)C)ccc2c1)C(C)C` [Compound 204] as the molecule, how does the EC50 read?
Its EC50 is 10 to 100 nM.

`COC(=O)N[C@H](C(=O)N1CCC[C@H]1C(=O)Nc1ccc2cc(-c3cnc(NC(=O)[C@@H]4CCCN4C(=O)[C@@H](NC(=O)OC)C(C)C)nc3)ccc2n1)C(C)C` [Compound 212] was tested. Which EC50 did it give?
The EC50 was under 10 nM.
